According to patent US11006631B2, “Substituted pyrimidinyloxy pyridine derivatives as herbicides” (FMC Corporation, priority 2015, dated 2021):

How the values were obtained:
Format in all cases: in vivo
[1] = system: foxtail, giant (giant foxtail, Setaria faberii); assay: Test A postemergence, foxtail, giant; conditions: 0 to 100 scale
Description: (§1) Seeds of plant species selected from bamyardgrass (Echinochloa crus-galli), kochia (Kochia scoparia), ragweed (common ragweed, Ambrosia elatior), ryegrass, Italian (Italian ryegrass, Lolium multiflorum), foxtail, giant (giant foxtail, Setaria faberii), pigweed (Amaranthus retroflexus), crabgrass, large (large crabgrass, Digitaria sanguinalis), momingglory (Ipomoea spp.), velvetleaf (Abutilon theophrasti), wheat (Triticum aestivum), and corn (Zea mays) were planted into a blend of loam soil and sand and treated preemergence with a directed soil spray using test chemicals formulated in a non-phytotoxic solvent mixture which included a surfactant. At the same time, plants selected from these crop and weed species and also blackgrass (Alopecurus myosuroides), and galium (catchweed bedstraw, Galium aparine) were planted in pots containing the same blend of loam soil and sand and treated with postemergence applications of test chemicals formulated in the same manner. Plants ranged in height from 2 to 10 cm and were in the one- to two-leaf stage for the postemergence treatment. Treated plants and untreated controls were maintained in a greenhouse for approximately 10 days, after which time all treated plants were compared to untreated controls and visually evaluated for injury. Plant response ratings, summarized in Table A, are based on a 0 to 100 scale where 0 is no effect and 100 is complete control. A dash (-) response means no test result.

[2] = system: crabgrass, large (large crabgrass, Digitaria sanguinalis); assay: Test A postemergence, crabgrass, large; conditions: 0 to 100 scale
Description: as §1

[3] = system: velvetleaf (Abutilon theophrasti); assay: Test A postemergence, velvetleaf; conditions: 0 to 100 scale
Description: as §1

corn (Zea mays) [4] = assay: Test A postemergence, corn; conditions: 0 to 100 scale
Description: as §1

[5] = system: wheat (Triticum aestivum); assay: Test A preemergence, wheat; conditions: 0 to 100 scale
Description: as §1

[6] = system: sedge, umbrella (small-flower umbrella sedge, Cyperus difformis); assay: Test B flooded paddy test, sedge, umbrella; conditions: Flood, 250 g ai/ha; scale of 0 to 100
Description: (§2) Plant species in the flooded paddy test selected from rice (Oryza sativa), sedge, umbrella (small-flower umbrella sedge, Cyperus difformis), ducksalad (Heteranthera limosa), and barnyardgrass (Echinochloa crus-galli) were grown to the 2-leaf stage for testing. At time of treatment, test pots were flooded to 3 cm above the soil surface, treated by application of test compounds directly to the paddy water, and then maintained at that water depth for the duration of the test. Treated plants and controls were maintained in a greenhouse for 13 to 15 days, after which time all species were compared to controls and visually evaluated. Plant response ratings, summarized in Table B, are based on a scale of 0 to 100 where 0 is no effect and 100 is complete control. A dash (-) response means no test result.

[7] = system: ducksalad (Heteranthera limosa); assay: Test B flooded paddy test, ducksalad; conditions: Flood, 250 g ai/ha; scale of 0 to 100
Description: as §2

[8] = system: pigweed (Amaranthus retroflexus); assay: Test A postemergence, pigweed; conditions: 0 to 100 scale
Description: as §1

rice (Oryza sativa) = assay: Test B flooded paddy test, rice; conditions: Flood, 250 g ai/ha; scale of 0 to 100
Description: as §2

[9] = system: wheat (Triticum aestivum); assay: Test A postemergence, wheat; conditions: 0 to 100 scale
Description: as §1

[10] = system: crabgrass, large (large crabgrass, Digitaria sanguinalis); assay: Test A preemergence, crabgrass, large; conditions: 0 to 100 scale
Description: as §1

[11] = system: velvetleaf (Abutilon theophrasti); assay: Test A preemergence, velvetleaf; conditions: 0 to 100 scale
Description: as §1

[12] = system: foxtail, giant (giant foxtail, Setaria faberii); assay: Test A preemergence, foxtail, giant; conditions: 0 to 100 scale
Description: as §1

[13] = system: morningglory (Ipomoea spp.); assay: Test A postemergence, morningglory; conditions: 0 to 100 scale
Description: as §1

[14] = system: barnyardgrass (Echinochloa crus-galli); assay: Test A postemergence, barnyardgrass; conditions: 0 to 100 scale
Description: as §1

[15] = system: pigweed (Amaranthus retroflexus); assay: Test A preemergence, pigweed; conditions: 0 to 100 scale
Description: as §1

[16] = system: morningglory (Ipomoea spp.); assay: Test A preemergence, morningglory; conditions: 0 to 100 scale
Description: as §1

[17] = system: barnyardgrass (Echinochloa crus-galli); assay: Test A preemergence, barnyardgrass; conditions: 0 to 100 scale
Description: as §1

corn (Zea mays) [18] = assay: Test A preemergence, corn; conditions: 0 to 100 scale
Description: as §1

[19] = system: barnyardgrass (Echinochloa crus-galli); assay: Test B flooded paddy test, barnyardgrass; conditions: Flood, 250 g ai/ha; scale of 0 to 100
Description: as §2

Structure (SMILES)	Plant response rating, Foxtail, Giant ([1]; 125 g ai/ha)	Plant response rating, Foxtail, Giant ([1]; 500 g ai/ha)	Plant response rating, Crabgrass, Large ([2]; 125 g ai/ha)	Plant response rating, Crabgrass, Large ([2]; 500 g ai/ha)	Plant response rating, Velvetleaf ([3]; 125 g ai/ha)	Plant response rating, Velvetleaf ([3]; 500 g ai/ha)	Plant response rating, Corn (corn (Zea mays) [4]; 125 g ai/ha)	Plant response rating, Corn (corn (Zea mays) [4]; 500 g ai/ha)	Plant response rating, Wheat ([5]; 125 g ai/ha)	Plant response rating, Wheat ([5]; 500 g ai/ha)	Plant response rating, Sedge, Umbrella [6]	Plant response rating, Ducksalad [7]	Plant response rating, Pigweed ([8]; 125 g ai/ha)	Plant response rating, Pigweed ([8]; 500 g ai/ha)	Plant response rating, Rice (rice (Oryza sativa))	Plant response rating, Wheat ([9]; 125 g ai/ha)	Plant response rating, Wheat ([9]; 500 g ai/ha)	Plant response rating, Crabgrass, Large ([10]; 500 g ai/ha)	Plant response rating, Velvetleaf ([11]; 125 g ai/ha)	Plant response rating, Velvetleaf ([11]; 500 g ai/ha)	other results
Clc1cnc(Oc2cccnc2-n2cc(Br)cn2)nc1 [Compound 1, 2-[[2-(4-bromo-1H-pyrazol-1-yl)-3-pyridinyl]oxy]-5-chloropyrimidine]	10	30	10	50	20	50	10	20	0	10	50	60	90	100	0	10	20	100	10	30	Plant response rating, Crabgrass, Large ([10]; 125 g ai/ha): 40; Plant response rating, Foxtail, Giant ([12]; 125 g ai/ha): 20; Plant response rating, Foxtail, Giant ([12]; 500 g ai/ha): 80; Plant response rating, Morningglory ([13]; 125 g ai/ha): 10; Plant response rating, Morningglory ([13]; 500 g ai/ha): 80; Plant response rating, Barnyardgrass ([14]; 125 g ai/ha): 0; Plant response rating, Barnyardgrass ([14]; 500 g ai/ha): 10; Plant response rating, Pigweed ([15]; 125 g ai/ha): 50; Plant response rating, Pigweed ([15]; 500 g ai/ha): 90; Plant response rating, Morningglory ([16]; 500 g ai/ha): 0; Plant response rating, Barnyardgrass ([17]; 125 g ai/ha): 10; Plant response rating, Barnyardgrass ([17]; 500 g ai/ha): 50; Plant response rating, Corn (corn (Zea mays) [18]; 125 g ai/ha): 0; Plant response rating, Corn (corn (Zea mays) [18]; 500 g ai/ha): 0; Plant response rating, Barnyardgrass [19]: 0
Clc1cnc(Oc2cccnc2-n2cc(Cl)cn2)nc1 [Compound 2, 5-chloro-2-[[2-(4-chloro-1H-pyrazol-1-yl)-3-pyridinyl]oxy]pyrimidine]	0	30	10	40	20	70	0	10	0	10	75	80	100	100	0	10	20	100	10	30	Plant response rating, Foxtail, Giant ([12]; 125 g ai/ha): 10; Plant response rating, Foxtail, Giant ([12]; 500 g ai/ha): 80; Plant response rating, Morningglory ([13]; 125 g ai/ha): 40; Plant response rating, Morningglory ([13]; 500 g ai/ha): 80; Plant response rating, Barnyardgrass ([14]; 125 g ai/ha): 0; Plant response rating, Barnyardgrass ([14]; 500 g ai/ha): 20; Plant response rating, Pigweed ([15]; 125 g ai/ha): 70; Plant response rating, Pigweed ([15]; 500 g ai/ha): 90; Plant response rating, Morningglory ([16]; 125 g ai/ha): 0; Plant response rating, Morningglory ([16]; 500 g ai/ha): 0; Plant response rating, Barnyardgrass ([17]; 125 g ai/ha): 0; Plant response rating, Barnyardgrass ([17]; 500 g ai/ha): 40; Plant response rating, Corn (corn (Zea mays) [18]; 125 g ai/ha): 0; Plant response rating, Corn (corn (Zea mays) [18]; 500 g ai/ha): 0; Plant response rating, Barnyardgrass [19]: 0
